Source: patent US4988688A, “4-(N-substituted amino)-2-butynyl-1-ureas and thioureas and derivatives thereof as centrally acting muscarinic agents” (Warner-Lambert Company, priority 1989, dated 1991)
pIC50: −log10 of the molar value. Counter-ions that a name gives are not always drawn. Like-named read-outs stand apart in the source and are kept apart here.

Tests used:
[1] = tested on: mice; conditions: cited from earlier work
[2] = tested on: human SK-N-SH cells bearing muscarinic binding sites
Procedure: In the Muscarinic Induced Inositol Phosphate Accumulation Assay (MIPA) human SK-N-SH cells bearing muscarinic binding sites are incubated with the test compound. The production of inositol phosphates is then measured. Stimulation of inositol phosphate turnover reflects the degree of muscarinic agonist activity of the test compound. The concentration of test compound required to produce a response 50% of the maximum is then determined.

[3] = tested on: central muscarinic antagonist site; assay type: binding, rat; conditions: read-out: RQNB (1 μM) IC50
[4] = target: central muscarinic agonist site; assay: Receptor [^3H]Cis-methyldioxalane Assay (RCMD); assay type: binding; conditions: rat cerebral cortex tissue; radiolabeled cis-methyldioxalane; head prints (0.1 μm)
[5] = tested on: aged humans and nonhuman primates; conditions: aged humans and nonhuman primates with decreased cognition; acetylcholinesterase inhibitors such as physostigmine; cited from earlier work
[6] = tested on: age-related cognitive deficits; conditions: increasing acetylcholine release from presynaptic nerve terminals; cited from earlier work

C(#CCN1CCCC1)CN1CCCC1 [tremorine, 1,4-dipyrrolidino-2-butyne]
tremor of the head and limbs and its duration [1]: profound tremor of the head and limbs lasting for more than one hour

CNC(=O)N(C)CC#CCN(C)C.Cl [Example 2, N-[4-(Dimethylamino)-2-butynyl]-N,N'-dimethyl-urea, monohydrochloride]
MIPA (ED50) [2]: 1.84 × 10^-5 | pIC50 ([3]; rat cerebral cortex tissue, radiolabeled quinuclidinyl benzilate, head prints (1 μM)): 4.00 | pIC50 [4]: 6.56

CNC(=O)Oc1ccc2c(c1)[C@]1(C)CCN(C)[C@@H]1N2C [physostigmine]
memory improvement [5]: improved memory

Nc1ccncc1N [3,4-diaminopyridine]
effect on age-related cognitive deficits [6]: ameliorate age-related cognitive deficits

CNC(=O)N(C)CC#CCN1CCCC1 [Example 1a, N,N'-Dimethyl-N-4-(1-pyrrolidinyl)-2-butynyl]-urea, hydrochloride]
MIPA (ED50) [2]: 2.91 × 10^-5 | pIC50 [3]: 5.06 | pIC50 [4]: 7.36
